Oligonucleotides are written 5' to 3', each unit as a sugar letter and its base; * is a phosphorothioate linkage, no mark a phosphodiester; rarer units and linkages stand in square brackets, end groups in braces. Plain capitals give the bases only. d = 2'-deoxy (DNA)
system: human CD40 mRNA; test: Inhibition of CD40 mRNA levels by oligonucleotides (real-time RT-PCR); type: cell-based; design: concentration or dose not given beside the values; settings: oligodeoxynucleotides with phosphorothioate backbones throughout; averages from three experiments
Procedure: When cells reach about 80% confluency, they are treated with oligonucleotide. For cells grown in 96-well plates, wells are washed once with 200 μl Opti-MEM-1 reduced-serum medium (Life Technologies) and then treated with 130 μl of Opti-MEM-1 containing 3.75 μg/ml LIPOFECTIN (Life Technologies) and the desired oligonucleotide at a final concentration of 150 nM. After 4 hours of treatment, the medium was replaced with fresh medium. Cells were harvested 16 hours after oligonucleotide treatment.
Poly(A)+ mRNA was isolated according to Miura et al. (Clin. Chem., 1996, 42, 1758). Briefly, for cells grown on 96-well plates, growth medium was removed from the cells and each well was washed with 200 ul cold PBS. 60 ul lysis buffer (10 mM Tris-HCl, pH 7.6, 1 mM EDTA, 0.5 M NaCl, 0.5% NP-40, 20 mM vanadyl-ribonucleoside complex) was added to each well, the plate was gently agitated and then incubated at room temperature for five minutes. 55 ul of lysate was transferred to Oligo d(T) coated 96 well plates (AGCT Inc., Irvine, Calif.). Plates were incubated for 60 minutes at room temperature, washed 3 times with 200 ul of wash buffer (10 mM Tris-HCl pH 7.6, 1 mM EDTA, 0.3 M NaCl). After the final wash, the plate was blotted on paper towels to remove excess wash buffer and then air-dried for 5 minutes. 60 ul of elution buffer (5 mM Tris-HCl pH 7.6), preheated to 70° C. was added to each well, the plate was incubated on a 90° hot plate for 5 minutes, and the eluate then transferred to a fresh 96 well plate. Cells grown on 100 mm or other standard plates may be treated similarly, using appropriate volumes of all solutions.
Quantitation of CD40 mRNA levels was determined by real-time PCR (RT-PCR) using the ABI PRISM 7700 Sequence Detection System (PE-Applied Biosystems, Foster City, Calif.) according to manufacturer's instructions. This is a closed-tube, non-gel-based, fluorescence detection system which allows high-throughput quantitation of polymerase chain reaction (PCR) products in real-time.
As opposed to standard PCR, in which amplification products are quantitated after the PCR is completed, products in RT-PCR are quantitated as they accumulate. This is accomplished by including in the PCR reaction an oligonucleotide probe that anneals specifically between the forward and reverse PCR primers, and contains two fluorescent dyes. A reporter dye (e.g., JOE or FAM, PE-Applied Biosystems, Foster City, Calif.) is attached to the 5′ end of the probe and a quencher dye (e.g., TAMRA, PE-Applied Biosystems, Foster City, Calif.) is attached to the 3′ end of the probe. When the probe and dyes are intact, reporter dye emission is quenched by the proximity of the 3′ quencher dye. During amplification, annealing of the probe to the target sequence creates a substrate that can be cleaved by the 5′-exonuclease activity of Taq polymerase.
With each cycle, additional reporter dye molecules are cleaved from their respective probes, and the fluorescence intensity is monitored at regular (six-second) intervals by laser optics built into the ABI PRISM 7700 Sequence Detection System. In each assay, a series of parallel reactions containing serial dilutions of mRNA from untreated control samples generates a standard curve that is used to quantitate the percent inhibition after antisense oligonucleotide treatment of test samples.
RT-PCR reagents were obtained from PE-Applied Biosystems, Foster City, Calif. RT-PCR reactions were carried out by adding 25 ul PCR cocktail (1× Taqman buffer A, 5.5 mM MgCl2, 300 uM each of dATP, dCTP and dGTP, 600 uM of dUTP, 100 nM each of forward primer, reverse primer, and probe, 20 U RNAse inhibitor, 1.25 units AmpliTaq Gold, and 12.5 U MuLV reverse transcriptase) to 96 well plates containing 25 ul poly(A) mRNA solution. […]

Row | Substance | % INHIB. (Inhibition of CD40 mRNA Levels by Phosphorothioate Oligodeoxynucleotides)
1 | 18623 (DNA dC*dC*dA*dG*dG*dC*dG*dG*dC*dA*dG*dG*dA*dC*dC*dA*dC*dT; antisense) [compound 18623] | 30.71%
2 | 18624 (DNA dG*dA*dC*dC*dA*dG*dG*dC*dG*dG*dC*dA*dG*dG*dA*dC*dC*dA; antisense) [compound 18624] | 28.09%
3 | 18625 (DNA dA*dG*dG*dT*dG*dA*dG*dA*dC*dC*dA*dG*dG*dC*dG*dG*dC*dA; antisense) [compound 18625] | 21.89%
4 | 18626 (DNA dC*dA*dG*dA*dG*dG*dC*dA*dG*dA*dC*dG*dA*dA*dC*dC*dA*dT; antisense) [compound 18626] | 0.00%
5 | 18627 (DNA dG*dC*dA*dG*dA*dG*dG*dC*dA*dG*dA*dC*dG*dA*dA*dC*dC*dA; antisense) [compound 18627] | 0.00%
6 | 18628 (DNA dG*dC*dA*dA*dG*dC*dA*dG*dC*dC*dC*dC*dA*dG*dA*dG*dG*dA; antisense) [compound 18628] | 0.00%
7 | 18629 (DNA dG*dG*dT*dC*dA*dG*dC*dA*dA*dG*dC*dA*dG*dC*dC*dC*dC*dA; antisense) [compound 18629] | 29.96%
8 | 18630 (DNA dG*dA*dC*dA*dG*dC*dG*dG*dT*dC*dA*dG*dC*dA*dA*dG*dC*dA; antisense) [compound 18630] | 0.00%
9 | 18631 (DNA dG*dA*dT*dG*dG*dA*dC*dA*dG*dC*dG*dG*dT*dC*dA*dG*dC*dA; antisense) [compound 18631] | 0.00%
10 | 18632 (DNA dT*dC*dT*dG*dG*dA*dT*dG*dG*dA*dC*dA*dG*dC*dG*dG*dT*dC; antisense) [compound 18632] | 0.00%
11 | 18633 (DNA dG*dG*dT*dG*dG*dT*dT*dC*dT*dG*dG*dA*dT*dG*dG*dA*dC*dA; antisense) [compound 18633] | 0.00%
12 | 18634 (DNA dG*dT*dG*dG*dG*dT*dG*dG*dT*dT*dC*dT*dG*dG*dA*dT*dG*dG; antisense) [compound 18634] | 0.00%
13 | 18635 (DNA dG*dC*dA*dG*dT*dG*dG*dG*dT*dG*dG*dT*dT*dC*dT*dG*dG*dA; antisense) [compound 18635] | 0.00%
14 | 18636 (DNA dC*dA*dC*dA*dA*dA*dG*dA*dA*dC*dA*dG*dC*dA*dC*dT*dG*dA; antisense) [compound 18636] | 0.00%
15 | 18637 (DNA dC*dT*dG*dG*dC*dA*dC*dA*dA*dA*dG*dA*dA*dC*dA*dG*dC*dA; antisense) [compound 18637] | 0.00%
16 | 18638 (DNA dT*dC*dC*dT*dG*dG*dC*dT*dG*dG*dC*dA*dC*dA*dA*dA*dG*dA; antisense) [compound 18638] | 0.00%
17 | 18639 (DNA dC*dT*dG*dT*dC*dC*dT*dG*dG*dC*dT*dG*dG*dC*dA*dC*dA*dA; antisense) [compound 18639] | 4.99%
18 | 18640 (DNA dC*dT*dC*dA*dC*dC*dA*dG*dT*dT*dT*dC*dT*dG*dT*dC*dC*dT; antisense) [compound 18640] | 0.00%
19 | 18641 (DNA dT*dC*dA*dC*dT*dC*dA*dC*dC*dA*dG*dT*dT*dT*dC*dT*dG*dT; antisense) [compound 18641] | 0.00%

Row | Substance | % INHIB. (Inhibition of CD40 mRNA Levels by Phosphorothioate Oligodeoxynucleotides)
20 | 18642 (DNA dG*dT*dG*dC*dA*dG*dT*dC*dA*dC*dT*dC*dA*dC*dC*dA*dG*dT; antisense) [compound 18642] | 0.00%
21 | 18643 (DNA dA*dC*dT*dC*dT*dG*dT*dG*dC*dA*dG*dT*dC*dA*dC*dT*dC*dA; antisense) [compound 18643] | 0.00%
22 | 18644 (DNA dC*dA*dG*dT*dG*dA*dA*dC*dT*dC*dT*dG*dT*dG*dC*dA*dG*dT; antisense) [compound 18644] | 5.30%
23 | 18645 (DNA dA*dT*dT*dC*dC*dG*dT*dT*dT*dC*dA*dG*dT*dG*dA*dA*dC*dT; antisense) [compound 18645] | 0.00%
24 | 18646 (DNA dG*dA*dA*dG*dG*dC*dA*dT*dT*dC*dC*dG*dT*dT*dT*dC*dA*dG; antisense) [compound 18646] | 9.00%
25 | 18647 (DNA dT*dT*dC*dA*dC*dC*dG*dC*dA*dA*dG*dG*dA*dA*dG*dG*dC*dA; antisense) [compound 18647] | 0.00%
26 | 18648 (DNA dC*dT*dC*dT*dG*dT*dT*dC*dC*dA*dG*dG*dT*dG*dT*dC*dT*dA; antisense) [compound 18648] | 0.00%
27 | 18649 (DNA dC*dT*dG*dG*dT*dG*dG*dC*dA*dG*dT*dG*dT*dG*dT*dC*dT*dC; antisense) [compound 18649] | 0.00%
28 | 18650 (DNA dT*dG*dG*dG*dG*dT*dC*dG*dC*dA*dG*dT*dA*dT*dT*dT*dG*dT; antisense) [compound 18650] | 0.00%
29 | 18651 (DNA dG*dG*dT*dT*dG*dG*dG*dG*dT*dC*dG*dC*dA*dG*dT*dA*dT*dT; antisense) [compound 18651] | 0.00%
30 | 18652 (DNA dC*dT*dA*dG*dG*dT*dT*dG*dG*dG*dG*dT*dC*dG*dC*dA*dG*dT; antisense) [compound 18652] | 0.00%
31 | 18653 (DNA dG*dG*dT*dG*dC*dC*dC*dT*dT*dC*dT*dG*dC*dT*dG*dG*dA*dC; antisense) [compound 18653] | 19.67%
32 | 18654 (DNA dC*dT*dG*dA*dG*dG*dT*dG*dC*dC*dC*dT*dT*dC*dT*dG*dC*dT; antisense) [compound 18654] | 15.63%
33 | 18655 (DNA dG*dT*dG*dT*dC*dT*dG*dT*dT*dT*dC*dT*dG*dA*dG*dG*dT*dG; antisense) [compound 18655] | 0.00%
34 | 18656 (DNA dT*dG*dG*dT*dG*dT*dC*dT*dG*dT*dT*dT*dC*dT*dG*dA*dG*dG; antisense) [compound 18656] | 0.00%
35 | 18657 (DNA dA*dC*dA*dG*dG*dT*dG*dC*dA*dG*dA*dT*dG*dG*dT*dG*dT*dC; antisense) [compound 18657] | 0.00%
36 | 18658 (DNA dT*dT*dC*dA*dC*dA*dG*dG*dT*dG*dC*dA*dG*dA*dT*dG*dG*dT; antisense) [compound 18658] | 0.00%
37 | 18659 (DNA dG*dT*dG*dC*dC*dA*dG*dC*dC*dT*dT*dC*dT*dT*dC*dA*dC*dA; antisense) [compound 18659] | 5.67%
38 | 18660 (DNA dT*dA*dC*dA*dG*dT*dG*dC*dC*dA*dG*dC*dC*dT*dT*dC*dT*dT; antisense) [compound 18660] | 7.80%
